Measurements published in patent publication US4539322A, “Dihydropyridine derivatives and their use in treating heart conditions and hypertension” (Pfizer Inc., priority 1982, dated 1985).
Where a name gives a salt, the structure may show the parent alone.

System: rat aorta
Assay: Inhibition of calcium-induced contraction of isolated rat aorta strips (reduction of response to added calcium chloride in K+-containing saline)
Type: cell-based
Details: 0.75 h; spirally cut rat aorta strips, 45 millimolar potassium, calcium 2 millimolar, test repeated with compound after 45 minutes; read-out: molar concentration of the compounds required to reduce the response by 50% (IC50)
Protocol: The ability of the compounds to inhibit the movement of calcium into the cell is shown by their effectiveness in reducing the response of isolated heart tissue to an increase in calcium ion concentration in vitro. The test is performed by mounting spirally cut strips of rat aorta with one end fixed and the other attached to a force transducer. The tissue is immersed in a bath of physiological saline solution containing potassium ion s at a concentration of 45 millimolar and no calcium. Calcium chloride is added to the bath with a pipette to give a final calcium ion concentration of 2 millimolar. The change in tension caused by the resulting contraction of the tissue is noted. The bath is drained and replaced with fresh saline solution and, after 45 minutes, the test is repeated with the particular compound under test present in the saline solution. The concentration of compound required to reduce the response by 50% is recorded.

CCOC(=O)C1=C(COCCN2CCN(C(=NC)NC#N)CC2)NC(C)=C(C(=O)OC)C1c1ccccc1Cl (stereo not shown) [Example 1, 4-(2-chlorophenyl)-2-[2-[4-(N-cyano-N'-methyl-amidino)piperazin-1-yl]ethoxymethyl]-3-ethoxycarbonyl-5-methoxy-carbonyl-6-methyl-1,4-dihydropyridine, oxalate salt] and CCOC(=O)C1=C(COCCN2CCN(C(=NC#N)NC(C)C)CC2)NC(C)=C(C(=O)OC)C1c1ccccc1Cl (stereo not shown) [Example 3] are the same in IC50: 10 nM for the first, 10 nM for the second.

Going from CCOC(=O)C1=C(COCCN2CCN(C(=NC#N)N3CCCC3)CC2)NC(C)=C(C(=O)OC)C1c1ccccc1Cl (stereo not shown) [Example 2] to CCOC(=O)C1=C(COCCN2CCN(C(N)=NC#N)CC2)NC(C)=C(C(=O)OC)C1c1ccccc1Cl (stereo not shown) [Example 5], the IC50 rises from 14 nM to 100 nM (7.1-fold).

Going from CCOC(=O)C1=C(COCCN2CCN(C(=NC#N)N(C)C)CC2)NC(C)=C(C(=O)OC)C1c1ccccc1Cl (stereo not shown) [Example 4] to CCOC(=O)C1=C(COCCN2CCN(C(=O)N(C)C)CC2)NC(C)=C(C(=O)OC)C1c1ccccc1Cl (stereo not shown) [Example 41, 4-(2-chlorophenyl)-2-[2-(4-[N,N-dimethylcarbamoyl]-piperazin-1-yl)ethoxymethyl]-3-ethoxycarbonyl-5-methoxycarbonyl-6-methyl-1,4-dihydropyridine, hydrochloride salt], the IC50 rises from 7 nM to 12.9 nM (1.8-fold).

First: CCOC(=O)C1=C(COCCN2CCN(C(=NC#N)NCCN(C)C)CC2)NC(C)=C(C(=O)OC)C1c1ccccc1Cl (stereo not shown) [Example 6]
Second: CCCNC(=O)N1CCN(CCOCC2=C(C(=O)OCC)C(c3ccccc3Cl)C(C(=O)OC)=C(C)N2)CC1 (stereo not shown) [Example 25]
The IC50 of the first is 13-fold higher: 100 nM for the first, 7.76 nM for the second.

First: CCOC(=O)C1=C(COCCN2CCN(C(=NS(C)(=O)=O)NC)CC2)NC(C)=C(C(=O)OC)C1c1ccccc1Cl (stereo not shown) [Example 7]
Second: CCOC(=O)C1=C(COCCN2CCN(C(=O)NC)CC2)NC(C)=C(C(=O)OC)C1c1ccccc1Cl (stereo not shown) [Example 13]
The IC50 of the first is 17-fold higher: 100 nM for the first, 6 nM for the second. The second is the more potent here.

First: CCOC(=O)C1=C(COCCN2CCN(C(=NS(=O)(=O)c3ccccc3)NC)CC2)NC(C)=C(C(=O)OC)C1c1ccccc1Cl (stereo not shown) [Example 8]
Second: CCOC(=O)C1=C(COCCN2CCN(C(=O)Nc3ccccc3)CC2)NC(C)=C(C(=O)OC)C1c1ccccc1Cl (stereo not shown) [Example 15]
The IC50 of the first is 3.7-fold higher: 18.6 nM for the first, 5.01 nM for the second. The second is the more potent here.

First: CCOC(=O)C1=C(COCCN2CCN(C(=NC#N)NC)CC2)NC(C)=C(C(=O)OC)C1c1cccc(Cl)c1Cl (stereo not shown) [Example 9]
Second: CCOC(=O)C1=C(COCCN2CCN(C(=O)NC)CC2)NC(C)=C(C(=O)OC)C1c1cccc(Cl)c1Cl (stereo not shown) [Example 31]
The IC50 of the first is 6-fold higher: 15.1 nM for the first, 2.5 nM for the second.

Compared with CCOC(=O)C1=C(COCCN2CCN(C(=S)NC)CC2)NC(C)=C(C(=O)OC)C1c1ccccc1Cl (stereo not shown) [Example 10, 4-(2-chlorophenyl)-3-ethoxycarbonyl-5-methoxy-carbonyl-6-methyl-2-[2-(4-(N-methylthiocarbamoyl)-piperazin-1-yl)ethoxymethyl]-1,4-dihydropyridine, hydrochloride salt], CCOC(=O)C1=C(COCCN2CCN(C(N)=O)CC2)NC(C)=C(C(=O)OC)C1c1ccccc1Cl (stereo not shown) [Example 14] is 1.7-fold lower in IC50: 6.3 nM for the first, 3.72 nM for the second.

First: CCOC(=O)NC(=S)N1CCN(CCOCC2=C(C(=O)OCC)C(c3ccccc3Cl)C(C(=O)OC)=C(C)N2)CC1 (stereo not shown) [Example 11]
Second: CCOC(=O)CNC(=O)N1CCN(CCOCC2=C(C(=O)OCC)C(c3ccccc3Cl)C(C(=O)OC)=C(C)N2)CC1 (stereo not shown) [Example 17]
The IC50 of the first is 7-fold lower: 13.8 nM for the first, 97 nM for the second.

CCOC(=O)C1=C(COCCN2CCN(C(=O)NC(C)(C)C)CC2)NC(C)=C(C(=O)OC)C1c1ccccc1Cl (stereo not shown) [Example 12] and CCOC(=O)C1=C(COCCN2CCN(C(=O)NC(C)C)CC2)NC(C)=C(C(=O)OC)C1c1ccccc1Cl (stereo not shown) [Example 22] are within 1.5-fold of each other in IC50: 2 nM for the first, 2.4 nM for the second.

First: CCOC(=O)C1=C(COCCN2CCN(C(=O)NS(=O)(=O)c3ccc(C)cc3)CC2)NC(C)=C(C(=O)OC)C1c1ccccc1Cl (stereo not shown) [Example 16]
Second: CCOC(=O)C1=C(COCCN2CCN(C(=O)Nc3ccc(F)cc3)CC2)NC(C)=C(C(=O)OC)C1c1ccccc1Cl (stereo not shown) [Example 21]
The IC50 of the first is 11-fold higher: 251 nM for the first, 21.9 nM for the second. The second is the more potent here.

CCOC(=O)C1=C(COCCN2CCN(C(=O)NC3CC3)CC2)NC(C)=C(C(=O)OC)C1c1ccccc1Cl (stereo not shown) [Example 18] and CCOC(=O)C1=C(COCCN2CCN(C(=O)NC3CCCCC3)CC2)NC(C)=C(C(=O)OC)C1c1ccccc1Cl (stereo not shown) [Example 23] are within 1.5-fold of each other in IC50: 6.92 nM for the first, 8.51 nM for the second.

First: CCCCNC(=O)N1CCN(CCOCC2=C(C(=O)OCC)C(c3ccccc3Cl)C(C(=O)OC)=C(C)N2)CC1 (stereo not shown) [Example 19]
Second: CCOC(=O)C1=C(COCCN2CCN(CC(=O)OC)CC2)NC(C)=C(C(=O)OC)C1c1ccccc1Cl (stereo not shown) [Example 39]
The IC50 of the first is 1.5-fold higher: 15.8 nM for the first, 10.5 nM for the second.

Compared with CCOC(=O)C1=C(COCCN2CCN(C(=O)Nc3ccc(C(=O)OCC)cc3)CC2)NC(C)=C(C(=O)OC)C1c1ccccc1Cl (stereo not shown) [Example 20], CCOC(=O)C1=C(COCCN2CCN(C(=O)Nc3cccnc3)CC2)NC(C)=C(C(=O)OC)C1c1ccccc1Cl (stereo not shown) [Example 24] is 2.3-fold lower in IC50: 33.1 nM for the first, 14.5 nM for the second.

First: CCOC(=O)C1=C(COCC(C)N2CCN(C(=O)NC)CC2)NC(C)=C(C(=O)OC)C1c1ccccc1Cl (stereo not shown) [Example 26]
Second: CCNC(=O)N1CCN(C(C)COCC2=C(C(=O)OCC)C(c3ccccc3Cl)C(C(=O)OC)=C(C)N2)CC1 (stereo not shown) [Example 27]
The IC50 of the first is 1.6-fold lower: 13.5 nM for the first, 21 nM for the second. The first is the more potent here.

Going from CCOC(=O)C1=C(COCC(C)N2CCN(C(=O)NC(C)C)CC2)NC(C)=C(C(=O)OC)C1c1ccccc1Cl (stereo not shown) [Example 28] to CCOC(=O)C1=C(COCC(C)(C)N2CCN(C(=O)NC)CC2)NC(C)=C(C(=O)OC)C1c1ccccc1Cl (stereo not shown) [Example 29], the IC50 rises from 9.3 nM to 15 nM (1.6-fold). The first is the more potent here.

Compared with CCOC(=O)C1=C(COCCN2CCN(C(=O)NC)CC2)NC(C)=C(C(=O)OC)C1c1ccccc1C(F)(F)F (stereo not shown) [Example 30], CCOC(=O)C1=C(COCCN2CCN(C(=O)NC)CC2)NC(C)=C(C(=O)OC)C1c1ccccc1F (stereo not shown) [Example 35] is 1.8-fold higher in IC50: 11 nM for the first, 19.5 nM for the second. The first is the more potent here.

Going from CCOC(=O)C1=C(COCCN2CCN(C(=O)NC)CC2)NC(C)=C(C(=O)OC)C1c1cc(Cl)cc(Cl)c1 (stereo not shown) [Example 32] to CCOC(=O)C1=C(COCCN2CCN(C(=O)NC)CC2)NC(C)=C(C(=O)OC)C1c1cccc(Cl)c1 (stereo not shown) [Example 34], the IC50 falls from 50 nM to 17.8 nM (2.8-fold). The second is the more potent here.

Compared with CCOC(=O)C1=C(COCCN2CCN(C(=O)NC)CC2)NC(C)=C(C(=O)OC)C1c1c(Cl)cccc1Cl (stereo not shown) [Example 33], CCOC(=O)C1=C(COCCN2CCN(C(N)=O)CC2)NC(C)=C(C(=O)OC)C1c1cccc(Cl)c1Cl (stereo not shown) [Example 37] is 3.2-fold lower in IC50: 25 nM for the first, 7.9 nM for the second. The second is the more potent here.

Going from CCOC(=O)C1=C(COCCN2CCN(C(=O)NC)CC2)NC(C)=C(C(=O)OC)C1c1nccs1 (stereo not shown) [Example 36] to CCOC(=O)C1=C(COCCN2CCN(CC(N)=O)CC2)NC(C)=C(C(=O)OC)C1c1ccccc1Cl (stereo not shown) [Example 40], the IC50 falls from 1000 nM to 10.5 nM (95-fold).

CCOC(=O)C1=C(COCCN2CCN(CC(=O)Nc3c(C)cccc3C)CC2)NC(C)=C(C(=O)OC)C1c1ccccc1Cl (stereo not shown) [Example 38, 4-(2-chlorophenyl)-2-[2-[4-(N-[2,6-dimethylphenyl]carbamoylmethyl)piperazin-1-yl]ethoxymethyl]-3-ethoxycarbonyl-5-methoxycarbonyl-6-methyl-1,4-dihydropyridine] and CCOC(=O)C1=C(COCCN2CCN(S(C)(=O)=O)CC2)NC(C)=C(C(=O)OC)C1c1ccccc1Cl (stereo not shown) [Example 43] are within 1.5-fold of each other in IC50: 20.4 nM for the first, 15.8 nM for the second.

Work on CCOC(=O)C1=C(COCCN2CCN(S(=O)(=O)N(C)C)CC2)NC(C)=C(C(=O)OC)C1c1ccccc1Cl (stereo not shown) [Example 42] yielded an IC50 of 49 nM.
